Measured values reported in the supplement of paper PMC10307832.

Key:
Experiment in all cases: relative viability (nuclei count vs DMSO), 5 days (fraction); higher = more cells survive
[1] = tested on: NCI-H838
Procedure, shortened: (§1)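 Nuclei were stained with Hoechst during a one-step fixation (final 0.05% Triton X-100, 1% formaldehyde, 1 ug/ml Hoechst) carried out 5 days after dosing, then counted on 4× images. The cells, lung cancer lines in 1536-well plates, had been dosed by pin tool the day after seeding with one drug alone or a fixed anchor-drug dose plus five library-drug doses (not always all listed) in √10 steps. Relative viability is the nuclei count in treated wells divided by that in vehicle wells, and each value is the median of duplicate plates.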

[2] = tested on: NCI-H2087
Procedure, shortened: as §1

[3] = tested on: NCI-H1993
Procedure, shortened: as §1

[4] = tested on: NCI-H2023
Procedure, shortened: as §1

[5] = tested on: EMC-BAC-2
Procedure, shortened: as §1

[6] = tested on: NCI-H1395
Procedure, shortened: as §1

[7] = tested on: NCI-H3122
Procedure, shortened: as §1

[8] = tested on: BEN
Procedure, shortened: as §1

[9] = tested on: NCI-H2126
Procedure, shortened: as §1

[10] = tested on: NCI-H596
Procedure, shortened: as §1

[11] = tested on: LOU-NH91
Procedure, shortened: as §1

[12] = tested on: 201T
Procedure, shortened: as §1

[13] = tested on: LCLC-103H
Procedure, shortened: as §1

[14] = tested on: HARA
Procedure, shortened: as §1

[15] = tested on: NCI-H522
Procedure, shortened: as §1

[16] = tested on: HCC-44
Procedure, shortened: as §1

[17] = tested on: NCI-H441
Procedure, shortened: as §1

[18] = tested on: NCI-H23
Procedure, shortened: as §1

[19] = tested on: NCI-H650
Procedure, shortened: as §1

[20] = tested on: NCI-H647
Procedure, shortened: as §1

[21] = tested on: NCI-H727
Procedure, shortened: as §1

[22] = tested on: NCI-H2347
Procedure, shortened: as §1

COc1nc(C)cnc1NS(=O)(=O)c1cccnc1-c1ccc(-c2nnco2)cc1 [Zibotentan] + CCNC(=O)c1noc(-c2cc(C(C)C)c(O)cc2O)c1-c1ccc(CN2CCOCC2)cc1 [Luminespib] (partner 0.01 µM)
relative viability ([1]; first compound 0.08 µM): 0.21 | relative viability ([1]; first compound 0.253 µM): 0.212 | relative viability ([1]; first compound 0.8 µM): 0.314 | relative viability ([1]; first compound 2.53 µM): 0.313 | relative viability ([2]; first compound 0.08 µM): 0.168 | relative viability ([2]; first compound 0.253 µM): 0.171 | relative viability ([2]; first compound 0.8 µM): 0.169 | relative viability ([2]; first compound 2.53 µM): 0.124 | relative viability ([3]; first compound 0.08 µM): 0.667 | relative viability ([3]; first compound 0.253 µM): 0.978 | relative viability ([3]; first compound 0.8 µM): 0.839 | relative viability ([3]; first compound 2.53 µM): 0.949 | relative viability ([4]; first compound 0.08 µM): 0.856 | relative viability ([4]; first compound 0.253 µM): 0.455 | relative viability ([4]; first compound 0.8 µM): 0.645 | relative viability ([4]; first compound 2.53 µM): 0.799 | relative viability ([5]; first compound 0.08 µM): 1.3 | relative viability ([5]; first compound 0.8 µM): 1.13 | relative viability ([5]; first compound 2.53 µM): 1.22 | relative viability ([6]; first compound 0.08 µM): 0.725 | relative viability ([6]; first compound 0.253 µM): 0.724 | relative viability ([6]; first compound 0.8 µM): 0.649 | relative viability ([6]; first compound 2.53 µM): 0.754 | relative viability ([7]; first compound 0.08 µM): 0.0904 | relative viability ([7]; first compound 0.253 µM): 0.112 | relative viability ([7]; first compound 0.8 µM): 0.0537 | relative viability ([7]; first compound 2.53 µM): 0.104 | relative viability ([8]; first compound 0.08 µM): 0.401 | relative viability ([8]; first compound 0.253 µM): 0.356 | relative viability ([8]; first compound 0.8 µM): 0.395 | relative viability ([8]; first compound 2.53 µM): 0.537 | relative viability ([9]; first compound 0.08 µM): 0.978 | relative viability ([9]; first compound 0.8 µM): 0.896 | relative viability ([9]; first compound 2.53 µM): 0.919 | relative viability ([10]; first compound 0.08 µM): 1.02 | relative viability ([10]; first compound 0.253 µM): 0.939 | relative viability ([10]; first compound 0.8 µM): 1.16 | relative viability ([10]; first compound 2.53 µM): 1.03 | relative viability ([11]; first compound 0.08 µM): 0.33 | relative viability ([11]; first compound 0.253 µM): 0.315 | relative viability ([11]; first compound 0.8 µM): 0.382 | relative viability ([11]; first compound 2.53 µM): 0.364 | relative viability ([12]; first compound 0.08 µM): 1.11 | relative viability ([12]; first compound 0.253 µM): 1.03 | relative viability ([12]; first compound 0.8 µM): 1.14 | relative viability ([12]; first compound 2.53 µM): 1.07 | relative viability ([13]; first compound 0.08 µM): 0.913 | relative viability ([13]; first compound 0.253 µM): 0.682 | relative viability ([13]; first compound 0.8 µM): 0.982 | relative viability ([13]; first compound 2.53 µM): 0.927 | relative viability ([14]; first compound 0.08 µM): 0.731 | relative viability ([14]; first compound 0.253 µM): 0.705 | relative viability ([14]; first compound 0.8 µM): 0.636 | relative viability ([14]; first compound 2.53 µM): 0.836 | relative viability ([15]; first compound 0.08 µM): 1.26 | relative viability ([15]; first compound 0.253 µM): 1.02 | relative viability ([15]; first compound 0.8 µM): 1.13 | relative viability ([15]; first compound 2.53 µM): 1.09 | relative viability ([16]; first compound 0.08 µM): 1.63 | relative viability ([16]; first compound 0.8 µM): 1.07 | relative viability ([16]; first compound 2.53 µM): 1.08 | relative viability ([17]; first compound 0.08 µM): 0.41 | relative viability ([17]; first compound 0.253 µM): 0.255 | relative viability ([17]; first compound 0.8 µM): 0.345 | relative viability ([17]; first compound 2.53 µM): 0.368 | relative viability ([18]; first compound 0.08 µM): 0.199 | relative viability ([18]; first compound 0.8 µM): 0.231 | relative viability ([18]; first compound 2.53 µM): 0.186 | relative viability ([19]; first compound 0.08 µM): 0.869 | relative viability ([19]; first compound 0.253 µM): 0.667 | relative viability ([19]; first compound 0.8 µM): 0.865 | relative viability ([19]; first compound 2.53 µM): 0.856 | relative viability ([20]; first compound 0.08 µM): 0.244 | relative viability ([20]; first compound 0.253 µM): 0.16 | relative viability ([20]; first compound 0.8 µM): 0.185 | relative viability ([20]; first compound 2.53 µM): 0.164 | relative viability ([21]; first compound 0.08 µM): 0.289 | relative viability ([21]; first compound 0.253 µM): 0.316 | relative viability ([21]; first compound 0.8 µM): 0.83 | relative viability ([21]; first compound 2.53 µM): 0.325 | relative viability ([22]; first compound 0.253 µM): 0.382 | relative viability ([22]; first compound 0.8 µM): 0.426 | relative viability ([22]; first compound 2.53 µM): 0.452
